Measurements published in ChEMBL document CHEMBL1649107, “Sulfonate-containing thiiranes as selective gelatinase inhibitors” (ACS Med Chem Lett, 2011).
Converted amounts (≈) assume the structure as drawn. The source made the active and inactive calls. No cut-off for these calls is given here.

target: T1, Matrilysin (Homo sapiens) (UniProt P09237); experiment: Inhibition of human recombinant MMP7 catalytic domain assessed as dissociation rate constant by substrate hydrolysis based fluorescence spectrophotometry; details: not given
T1 sequence (whole entry): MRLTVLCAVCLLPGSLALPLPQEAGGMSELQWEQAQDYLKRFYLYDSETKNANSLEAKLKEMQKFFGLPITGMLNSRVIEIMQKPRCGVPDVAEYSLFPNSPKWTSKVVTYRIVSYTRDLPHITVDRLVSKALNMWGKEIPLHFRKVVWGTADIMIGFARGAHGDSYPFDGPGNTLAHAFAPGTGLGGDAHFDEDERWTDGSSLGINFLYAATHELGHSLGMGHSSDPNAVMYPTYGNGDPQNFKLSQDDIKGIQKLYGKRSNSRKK

Compared with `CCS(=O)(=O)Oc1ccc(S(=O)(=O)CC2CS2)cc1` (stereo not drawn), `CCCS(=O)(=O)Oc1ccc(S(=O)(=O)CC2CS2)cc1` (stereo not drawn) is higher in Activity: 0.6 ×10⁻³ /s for the first, 0.8 ×10⁻³ /s for the second.

First: CS(=O)(=O)Oc1ccc(S(=O)(=O)CC2CS2)cc1 (stereo not drawn)
Second: CC(C)CS(=O)(=O)Oc1ccc(S(=O)(=O)CC2CS2)cc1 (stereo not drawn)
The Activity of the first is lower: 0.5 ×10⁻³ /s for the first, 1.4 ×10⁻³ /s for the second.

target: T2, Matrix metalloproteinase-9 (Homo sapiens, UniProt P14780); experiment: Inhibition of human recombinant MMP9 catalytic domain assessed as dissociation rate constant by substrate hydrolysis based fluorescence spectrophotometry; details: not given
T2 sequence (P14780 whole entry, the tested form may be a part): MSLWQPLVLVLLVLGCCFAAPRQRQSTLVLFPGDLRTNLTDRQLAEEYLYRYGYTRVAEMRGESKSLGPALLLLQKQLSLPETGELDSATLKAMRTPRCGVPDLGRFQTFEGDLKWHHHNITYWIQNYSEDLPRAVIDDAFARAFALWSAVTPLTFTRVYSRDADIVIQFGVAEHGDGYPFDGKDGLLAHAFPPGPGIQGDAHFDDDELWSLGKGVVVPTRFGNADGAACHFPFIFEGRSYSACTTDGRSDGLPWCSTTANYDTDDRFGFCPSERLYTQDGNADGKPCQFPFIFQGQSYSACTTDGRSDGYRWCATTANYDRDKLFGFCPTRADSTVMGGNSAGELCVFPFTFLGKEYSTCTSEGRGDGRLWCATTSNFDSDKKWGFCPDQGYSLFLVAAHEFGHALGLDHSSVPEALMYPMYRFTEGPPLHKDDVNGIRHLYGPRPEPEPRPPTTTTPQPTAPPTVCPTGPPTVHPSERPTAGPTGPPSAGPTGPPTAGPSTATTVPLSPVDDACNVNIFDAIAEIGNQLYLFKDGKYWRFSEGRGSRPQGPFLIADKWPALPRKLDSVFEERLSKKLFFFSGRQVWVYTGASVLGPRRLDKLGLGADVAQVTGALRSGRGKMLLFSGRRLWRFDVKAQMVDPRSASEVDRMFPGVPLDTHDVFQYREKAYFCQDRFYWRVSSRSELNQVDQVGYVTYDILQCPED

Compared with `CCS(=O)(=O)Oc1ccc(S(=O)(=O)CC2CS2)cc1` (stereo not drawn), `CCCS(=O)(=O)Oc1ccc(S(=O)(=O)CC2CS2)cc1` (stereo not drawn) is lower in Activity: 1.8 ×10⁻³ /s for the first, 0.9 ×10⁻³ /s for the second.

First: CS(=O)(=O)Oc1ccc(S(=O)(=O)CC2CS2)cc1 (stereo not drawn)
Second: CC(C)CS(=O)(=O)Oc1ccc(S(=O)(=O)CC2CS2)cc1 (stereo not drawn)
The Activity of the first is lower: 0.25 ×10⁻³ /s for the first, 1.9 ×10⁻³ /s for the second.

target: T3, Matrix metalloproteinase-14 (Homo sapiens, UniProt P50281); experiment: Inhibition of human recombinant MMP14 catalytic domain assessed as dissociation rate constant by substrate hydrolysis based fluorescence spectrophotometry; details: not given

First: CCS(=O)(=O)Oc1ccc(S(=O)(=O)CC2CS2)cc1 (stereo not drawn)
Second: CCCS(=O)(=O)Oc1ccc(S(=O)(=O)CC2CS2)cc1 (stereo not drawn)
The Activity of the first is higher: 1.6 ×10⁻³ /s for the first, 1.5 ×10⁻³ /s for the second.

Going from `CS(=O)(=O)Oc1ccc(S(=O)(=O)CC2CS2)cc1` (stereo not drawn) to `CC(C)CS(=O)(=O)Oc1ccc(S(=O)(=O)CC2CS2)cc1` (stereo not drawn), the Activity rises from 0.2 ×10⁻³ /s to 1.7 ×10⁻³ /s.

target: T3, Matrix metalloproteinase-14; experiment: Inhibition of human recombinant MMP14 catalytic domain by substrate hydrolysis based fluorescence spectrophotometry; details: not given

Going from `CCS(=O)(=O)Oc1ccc(S(=O)(=O)CC2CS2)cc1` (stereo not drawn) to `CCCS(=O)(=O)Oc1ccc(S(=O)(=O)CC2CS2)cc1` (stereo not drawn), the Ki rises from 11 µM to 32 µM (2.9-fold).

Compared with `CS(=O)(=O)Oc1ccc(S(=O)(=O)CC2CS2)cc1` (stereo not drawn), `CC(C)CS(=O)(=O)Oc1ccc(S(=O)(=O)CC2CS2)cc1` (stereo not drawn) is 42-fold higher in Ki: 0.48 µM for the first, 20 µM for the second.

target: Stromelysin-1 (Homo sapiens, UniProt P08254); experiment: Inhibition of human recombinant MMP3 catalytic domain at 200 uM by substrate hydrolysis based fluorescence spectrophotometry; details: not given
Sequence (P08254 100-477 limits assumed): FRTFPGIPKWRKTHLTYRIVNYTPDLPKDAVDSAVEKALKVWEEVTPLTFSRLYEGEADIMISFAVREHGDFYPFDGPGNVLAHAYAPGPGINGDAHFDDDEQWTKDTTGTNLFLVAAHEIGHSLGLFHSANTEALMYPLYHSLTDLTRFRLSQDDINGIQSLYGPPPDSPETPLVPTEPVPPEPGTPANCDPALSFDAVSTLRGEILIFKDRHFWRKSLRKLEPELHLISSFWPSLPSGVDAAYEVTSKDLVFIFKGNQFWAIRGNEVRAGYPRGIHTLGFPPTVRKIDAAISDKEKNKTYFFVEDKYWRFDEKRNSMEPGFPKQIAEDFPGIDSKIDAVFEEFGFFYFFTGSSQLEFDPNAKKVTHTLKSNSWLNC

Going from `CCS(=O)(=O)Oc1ccc(S(=O)(=O)CC2CS2)cc1` (stereo not drawn) to `CCCS(=O)(=O)Oc1ccc(S(=O)(=O)CC2CS2)cc1` (stereo not drawn), the inhibition falls from 62% to 58%.

Compared with `CS(=O)(=O)Oc1ccc(S(=O)(=O)CC2CS2)cc1` (stereo not drawn), `CC(C)CS(=O)(=O)Oc1ccc(S(=O)(=O)CC2CS2)cc1` (stereo not drawn) is lower in inhibition: 29% for the first, 25% for the second.

target: T4, Interstitial collagenase (Homo sapiens) (UniProt P03956); experiment: Inhibition of human recombinant MMP1 catalytic domain at 200 uM by substrate hydrolysis based fluorescence spectrophotometry; details: not given
T4 sequence (whole entry): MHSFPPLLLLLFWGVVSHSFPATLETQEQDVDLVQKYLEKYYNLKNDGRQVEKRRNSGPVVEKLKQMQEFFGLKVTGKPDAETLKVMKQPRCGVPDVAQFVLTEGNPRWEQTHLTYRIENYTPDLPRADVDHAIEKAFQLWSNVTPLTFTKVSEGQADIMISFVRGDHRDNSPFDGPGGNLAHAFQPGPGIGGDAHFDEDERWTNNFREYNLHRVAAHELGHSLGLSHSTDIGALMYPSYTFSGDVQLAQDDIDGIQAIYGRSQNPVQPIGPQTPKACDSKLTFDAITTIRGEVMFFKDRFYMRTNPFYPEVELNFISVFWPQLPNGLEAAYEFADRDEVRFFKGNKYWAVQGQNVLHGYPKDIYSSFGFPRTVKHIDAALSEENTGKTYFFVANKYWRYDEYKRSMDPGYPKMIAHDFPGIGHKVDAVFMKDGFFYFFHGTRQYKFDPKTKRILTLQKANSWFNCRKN

First: CCS(=O)(=O)Oc1ccc(S(=O)(=O)CC2CS2)cc1 (stereo not drawn)
Second: CCCS(=O)(=O)Oc1ccc(S(=O)(=O)CC2CS2)cc1 (stereo not drawn)
The inhibition of the first is lower: 7% for the first, 30% for the second.

For `CC(C)CS(=O)(=O)Oc1ccc(S(=O)(=O)CC2CS2)cc1` (stereo not drawn), the inhibition was “inactive”.

test system: not listed separately; experiment: Half life in rat liver microsomes at 200 uM by HPLC; assay type: ADME, Microsome; details: not given

`CCS(=O)(=O)Oc1ccc(S(=O)(=O)CC2CS2)cc1` (stereo not drawn) and `CCCS(=O)(=O)Oc1ccc(S(=O)(=O)CC2CS2)cc1` (stereo not drawn) are within 1.5-fold of each other in half-life at 200 µM: 31.8 min for the first, 29.8 min for the second.

`CS(=O)(=O)Oc1ccc(S(=O)(=O)CC2CS2)cc1` (stereo not drawn) and `CC(C)CS(=O)(=O)Oc1ccc(S(=O)(=O)CC2CS2)cc1` (stereo not drawn) are within 1.5-fold of each other in half-life at 200 µM: 45.3 min for the first, 36.1 min for the second.

test system: not listed separately; experiment: Intrinsic clearance in rat liver microsomes at 200 uM by HPLC; assay type: ADME, Microsome; details: not given

`CCS(=O)(=O)Oc1ccc(S(=O)(=O)CC2CS2)cc1` (stereo not drawn) and `CCCS(=O)(=O)Oc1ccc(S(=O)(=O)CC2CS2)cc1` (stereo not drawn) are within 1.5-fold of each other in CLint scaled at 200 µM: 44.2 mL/min/kg for the first, 47.2 mL/min/kg for the second.

`CS(=O)(=O)Oc1ccc(S(=O)(=O)CC2CS2)cc1` (stereo not drawn) and `CC(C)CS(=O)(=O)Oc1ccc(S(=O)(=O)CC2CS2)cc1` (stereo not drawn) are within 1.5-fold of each other in CLint scaled at 200 µM: 31 mL/min/kg for the first, 38.8 mL/min/kg for the second.

target: T5, Interstitial collagenase (Homo sapiens, UniProt P03956); experiment: not given; details: not given
T5 sequence (P03956 whole entry): T4 sequence (whole entry)

Work on `CS(=O)(=O)Oc1ccc(S(=O)(=O)CC2CS2)cc1` (stereo not drawn) yielded a Ki of 41 µM.

target: 72 kDa type IV collagenase (Homo sapiens, UniProt P08253); experiment: not given; details: not given
Sequence (P08253 whole entry): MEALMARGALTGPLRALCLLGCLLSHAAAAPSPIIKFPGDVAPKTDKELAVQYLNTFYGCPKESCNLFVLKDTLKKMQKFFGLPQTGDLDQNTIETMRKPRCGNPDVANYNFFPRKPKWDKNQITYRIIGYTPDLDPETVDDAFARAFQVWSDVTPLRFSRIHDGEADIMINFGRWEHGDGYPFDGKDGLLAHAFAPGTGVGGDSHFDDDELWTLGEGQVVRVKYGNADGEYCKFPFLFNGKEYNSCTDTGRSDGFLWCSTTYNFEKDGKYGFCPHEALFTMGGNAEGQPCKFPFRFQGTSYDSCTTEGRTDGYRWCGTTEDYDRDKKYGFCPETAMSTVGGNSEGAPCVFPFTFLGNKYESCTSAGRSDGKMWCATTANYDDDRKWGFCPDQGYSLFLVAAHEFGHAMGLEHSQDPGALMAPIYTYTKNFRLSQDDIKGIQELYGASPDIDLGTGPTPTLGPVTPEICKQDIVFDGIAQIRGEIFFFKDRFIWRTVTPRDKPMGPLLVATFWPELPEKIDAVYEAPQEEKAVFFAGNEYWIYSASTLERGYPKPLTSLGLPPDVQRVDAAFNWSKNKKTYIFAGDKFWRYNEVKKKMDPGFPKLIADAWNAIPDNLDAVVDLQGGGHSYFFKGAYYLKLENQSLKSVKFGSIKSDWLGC

First: CCS(=O)(=O)Oc1ccc(S(=O)(=O)CC2CS2)cc1 (stereo not drawn)
Second: CCCS(=O)(=O)Oc1ccc(S(=O)(=O)CC2CS2)cc1 (stereo not drawn)
The Ki of the first is 3.1-fold lower: 0.09 µM for the first, 0.28 µM for the second. The first binds more tightly here.

First: CS(=O)(=O)Oc1ccc(S(=O)(=O)CC2CS2)cc1 (stereo not drawn)
Second: CC(C)CS(=O)(=O)Oc1ccc(S(=O)(=O)CC2CS2)cc1 (stereo not drawn)
The Ki of the first is 1.6-fold higher: 0.39 µM for the first, 0.24 µM for the second.

target: T6, Matrilysin (Homo sapiens, UniProt P09237); experiment: not given; details: not given
T6 sequence (P09237 whole entry): T1 sequence (whole entry)

`CCS(=O)(=O)Oc1ccc(S(=O)(=O)CC2CS2)cc1` (stereo not drawn) and `CCCS(=O)(=O)Oc1ccc(S(=O)(=O)CC2CS2)cc1` (stereo not drawn) are within 1.5-fold of each other in Ki: 26 µM for the first, 35 µM for the second.

Going from `CS(=O)(=O)Oc1ccc(S(=O)(=O)CC2CS2)cc1` (stereo not drawn) to `CC(C)CS(=O)(=O)Oc1ccc(S(=O)(=O)CC2CS2)cc1` (stereo not drawn), the Ki rises from 11 µM to 120 µM (11-fold).

target: T2, Matrix metalloproteinase-9; experiment: not given; details: not given

Compared with `CCS(=O)(=O)Oc1ccc(S(=O)(=O)CC2CS2)cc1` (stereo not drawn), `CCCS(=O)(=O)Oc1ccc(S(=O)(=O)CC2CS2)cc1` (stereo not drawn) is 1.9-fold lower in Ki: 12 µM for the first, 6.2 µM for the second. The second binds more tightly here.

`CS(=O)(=O)Oc1ccc(S(=O)(=O)CC2CS2)cc1` (stereo not drawn) and `CC(C)CS(=O)(=O)Oc1ccc(S(=O)(=O)CC2CS2)cc1` (stereo not drawn) are within 1.5-fold of each other in Ki: 3.9 µM for the first, 3.5 µM for the second.

test system: not listed separately; experiment: physchem; details: aqueous
Description: Aqueous solubility of the compound

`CCS(=O)(=O)Oc1ccc(S(=O)(=O)CC2CS2)cc1` (stereo not drawn) and `CCCS(=O)(=O)Oc1ccc(S(=O)(=O)CC2CS2)cc1` (stereo not drawn) are within 1.5-fold of each other in solubility: 114 µg/mL (≈ 354 µM) for the first, 96 µg/mL (≈ 285 µM) for the second.

`CS(=O)(=O)Oc1ccc(S(=O)(=O)CC2CS2)cc1` (stereo not drawn) and `CC(C)CS(=O)(=O)Oc1ccc(S(=O)(=O)CC2CS2)cc1` (stereo not drawn) are within 1.5-fold of each other in solubility: 167 µg/mL (≈ 542 µM) for the first, 230 µg/mL (≈ 656 µM) for the second.
